Laboratory results reported in paper PMC12030706, “Novel ^177Lu-Labeled [Thz^14]Bombesin(6–14) Derivatives with Low Pancreas Accumulation for Targeting Gastrin-Releasing Peptide Receptor-Expressing Cancer” (Pharmaceuticals, 2025).

Legend:
[1] = Ex vivo biodistribution in PC-3 tumor-bearing mice; settings: mouse; for tissue uptake at 72 h: 72 h post-injection; for tissue uptake at 120 h: 120 h post-injection; for tissue uptake at 4 h: 4 h post-injection; for tissue uptake at 24 h: 24 h post-injection
Description: (§1) SPECT/CT imaging experiments were performed using an MILabs (Houten, The Netherlands) U-SPECT-II/CT scanner with a custom-made ultra-high-sensitivity big mouse collimator (2 mm pinhole size) following previously reported procedures. […] Male NOD.Cg-Rag1^tm1Mom Il2rg^tm1Wjl/SzJ (NRG) mice were used in these experiments because of their immunodeficient characteristics and excellent radiation tolerance. Mice were anaesthetized and subcutaneously implanted with 5 × 10^6 PC-3 prostate cancer cells (100 µL; 1:1 PBS/Matrigel) behind the left shoulder. SPECT/CT imaging and biodistribution studies were performed once the tumors reached a diameter of 5–8 mm, typically after approximately 4 weeks of growth.
(§2) For ex vivo biodistribution studies, the mice were injected with ~2–6 MBq of the radioligand. […] Blocking study was conducted at 1 h post-injection via co-injection of the radioligand with 100 μg of [D-Phe^6,Leu-NHEt^13,des-Met^14]Bombesin(6–14). Organs/tissues of interested were collected, weighed, and measured using an automatic gamma counter.

PC-3 tumor-bearing mice = assay: Ex vivo biodistribution in PC-3 tumor-bearing mice
Description: as §1, §2

[2] = system: PC-3 tumor-bearing NRG mouse; assay: Longitudinal SPECT/CT imaging in PC-3 tumor-bearing mice; type: in vivo, mice (NRG); settings: SPECT/CT images
Description: The PC-3 tumor-bearing mice were sedated (2.5% isoflurane in O2) and injected with ^177Lu-labeled ligands (15–32 MBq) through a lateral caudal tail vein. […] At each time point, a 5 min CT scan was obtained using 615 μA and 60 kV parameters for localization and attenuation, followed by 2 × 30 min static SPECT scans acquired in list mode with an energy window centered around 208 keV. The MILabs U-SPECT II reconstruction software (version 8.00) was used to reconstruct data, and the images were decay corrected to the time of injection with PMOD v 3.402 (PMOD Technologies GmbH, Fallanden, Switzerland).

[3] = large intestine, Uptake in large intestine
[4] = small intestine, Uptake in small intestine
[5] = 1 h post-injection, 100 µg [D-Phe6,Leu-NHEt13,des-Met14]Bombesin(6–14)

CC(C)C[C@@H](CN1CSC[C@H]1C(N)=O)NC(=O)[C@H](Cc1cnc[nH]1)NC(=O)CN(C)C(=O)[C@@H](NC(=O)[C@H](C)NC(=O)[C@H](Cc1c[nH]c2ccccc12)NC(=O)[C@H](CCC(N)=O)NC(=O)[C@@H](Cc1ccccc1)NC(=O)CN1CCC(NC(=O)CN2CCN(CC(=O)O)CCN(CC(=O)O)CCN(CC(=O)O)CC2)CC1)C(C)C [[^177Lu]Lu-TacsBOMB5, metal not drawn]
tissue uptake at 72 h ([1]; kidneys, Uptake in kidneys): 0.6 ± 0.07 %ID/g | tissue uptake at 120 h ([1]; kidneys, Uptake in kidneys): 0.39 ± 0.11 %ID/g | tissue uptake at 1 h ([1]; large intestine, 100 ug, Uptake in large intestine, 1 h blocked (co-injected with 100 µg [D-Phe6,Leu-NHEt13,des-Met14]Bombesin(6-14))): 0.13 ± 0.04 %ID/g | tissue uptake at 1 h ([1]; large intestine, Uptake in large intestine, 1 h post-injection): 0.31 ± 0.09 %ID/g | tissue uptake at 4 h [1, 3]: 0.42 ± 0.09 %ID/g | tissue uptake at 24 h [1, 3]: 0.42 ± 0.25 %ID/g | tissue uptake at 1 h ([1]; liver, 100 ug, Uptake in liver, 1 h blocked (co-injected with 100 µg [D-Phe6,Leu-NHEt13,des-Met14]Bombesin(6-14))): 0.29 ± 0.05 %ID/g | tissue uptake at 1 h ([1]; liver, Uptake in liver, 1 h post-injection): 0.67 ± 0.07 %ID/g | tissue uptake at 4 h ([1]; liver, Uptake in liver): 0.54 ± 0.04 %ID/g | tissue uptake at 24 h ([1]; liver, Uptake in liver): 0.29 ± 0.02 %ID/g | tissue uptake at 120 h ([1]; liver, Uptake in liver): 0.16 ± 0.07 %ID/g | tissue uptake at 1 h ([1]; lungs, 100 ug, Uptake in lungs, 1 h blocked (co-injected with 100 µg [D-Phe6,Leu-NHEt13,des-Met14]Bombesin(6-14))): 0.37 ± 0.04 %ID/g | tissue uptake at 1 h ([1]; lungs, Uptake in lungs, 1 h post-injection): 2.2 ± 0.93 %ID/g | tissue uptake at 4 h ([1]; lungs, Uptake in lungs): 1.45 ± 0.34 %ID/g | tissue uptake at 24 h ([1]; lungs, Uptake in lungs): 0.25 ± 0.03 %ID/g | tissue uptake at 72 h ([1]; lungs, Uptake in lungs): 0.13 ± 0.01 %ID/g | tissue uptake at 120 h ([1]; lungs, Uptake in lungs): 0.07 ± 0.03 %ID/g | tissue uptake at 1 h ([1]; muscle, 100 ug, Uptake in muscle, 1 h blocked (co-injected with 100 µg [D-Phe6,Leu-NHEt13,des-Met14]Bombesin(6-14))): 0.13 ± 0.03 %ID/g | tissue uptake at 1 h ([1]; muscle, Uptake in muscle, 1 h post-injection): 0.22 ± 0.01 %ID/g | tissue uptake at 72 h ([1]; muscle, Uptake in muscle): 0.02 %ID/g | tissue uptake at 120 h ([1]; muscle, Uptake in muscle): 0.01 %ID/g | tissue uptake at 1 h ([1]; pancreas, 100 ug, Uptake in pancreas, 1 h blocked (co-injected with 100 µg [D-Phe6,Leu-NHEt13,des-Met14]Bombesin(6-14))): 0.59 ± 0.11 %ID/g | tissue uptake at 1 h ([1]; pancreas, Uptake in pancreas, 1 h post-injection): 1.08 ± 0.22 %ID/g | tissue uptake at 4 h ([1]; pancreas, Uptake in pancreas): 0.21 ± 0.01 %ID/g | tissue uptake at 72 h ([1]; pancreas, Uptake in pancreas): 0.04 ± 0.01 %ID/g | tissue uptake at 120 h ([1]; pancreas, Uptake in pancreas): 0.02 %ID/g | tissue uptake at 1 h ([1]; small intestine, 100 ug, Uptake in small intestine, 1 h blocked (co-injected with 100 µg [D-Phe6,Leu-NHEt13,des-Met14]Bombesin(6-14))): 0.26 ± 0.04 %ID/g | tissue uptake at 1 h ([1]; small intestine, Uptake in small intestine, 1 h post-injection): 0.6 ± 0.16 %ID/g | tissue uptake at 4 h [1, 4]: 0.19 ± 0.05 %ID/g | tissue uptake at 24 h [1, 4]: 0.09 ± 0.03 %ID/g | tissue uptake at 120 h [1, 4]: 0.02 %ID/g | tissue uptake at 1 h ([1]; spleen, 100 ug, Uptake in spleen, 1 h blocked (co-injected with 100 µg [D-Phe6,Leu-NHEt13,des-Met14]Bombesin(6-14))): 0.15 ± 0.02 %ID/g | tissue uptake at 1 h ([1]; spleen, Uptake in spleen, 1 h post-injection): 0.31 ± 0.03 %ID/g | tissue uptake at 24 h ([1]; spleen, Uptake in spleen): 0.16 ± 0.03 %ID/g | tissue uptake at 72 h ([1]; spleen, Uptake in spleen): 0.18 ± 0.05 %ID/g | tissue uptake at 120 h ([1]; spleen, Uptake in spleen): 0.14 ± 0.06 %ID/g | tissue uptake at 1 h ([1]; stomach, 100 ug, Uptake in stomach, 1 h blocked (co-injected with 100 µg [D-Phe6,Leu-NHEt13,des-Met14]Bombesin(6-14))): 0.06 ± 0.01 %ID/g | tissue uptake at 24 h ([1]; stomach, Uptake in stomach): 0.27 ± 0.16 %ID/g | tissue uptake at 120 h ([1]; stomach, Uptake in stomach): 0.02 ± 0.02 %ID/g | tissue uptake at 1 h ([1]; testes, 100 ug, Uptake in testes, 1 h blocked (co-injected with 100 µg [D-Phe6,Leu-NHEt13,des-Met14]Bombesin(6-14))): 0.18 ± 0.02 %ID/g | tissue uptake at 1 h ([1]; testes, Uptake in testes, 1 h post-injection): 0.45 ± 0.11 %ID/g | tissue uptake at 24 h ([1]; testes, Uptake in testes): 0.12 ± 0.02 %ID/g | reduction of average pancreas uptake by co-injection of blocker (PC-3 tumor-bearing mice; [5]): 45% | reduction of average tumor uptake by co-injection of blocker (PC-3 tumor-bearing mice; [5]): 71% | uptake in PC-3 tumor xenografts cleared within 24 h (PC-3 tumor-bearing mice; relative to 1 h uptake): Approximately 80% | excretion pathway [2]: excreted mainly via the renal pathway
